28 molecules from patent US11945808B2, “Substituted cyclohexyl compounds as NOP inhibitors” (Dart NeuroScience, LLC, priority 2018, dated 2024) can be followed below.

Sequence of human opioid NOP (P41146 whole entry): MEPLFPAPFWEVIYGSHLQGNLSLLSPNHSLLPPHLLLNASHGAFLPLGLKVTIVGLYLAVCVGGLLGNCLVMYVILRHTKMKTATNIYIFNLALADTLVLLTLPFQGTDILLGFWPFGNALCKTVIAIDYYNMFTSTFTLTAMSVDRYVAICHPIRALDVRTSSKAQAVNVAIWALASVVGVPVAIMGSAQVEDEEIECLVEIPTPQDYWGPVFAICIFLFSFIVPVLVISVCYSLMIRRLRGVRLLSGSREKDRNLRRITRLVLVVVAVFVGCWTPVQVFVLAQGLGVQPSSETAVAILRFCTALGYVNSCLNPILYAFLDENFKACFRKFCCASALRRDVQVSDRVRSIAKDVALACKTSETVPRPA

For this experiment, the target named is human opioid NOP (Homo sapiens, UniProt P41146). Kind of experiment: Cell-based NOP cAMP assay (LANCE cAMP, TR-FRET). The note with it: antagonism of nociceptin in cAMP assay, cells expressing human NOP, forskolin-stimulated; values given as ranges; read-out: NOP (pIC50) (converted). On the procedure:
Formula (I) compounds were tested for antagonism of the nociceptin receptor (NOP) in a cell-based cAMP assay, using the LANCE cAMP Detection Kit, Perkin Elmer (Waltham, MA). This assay (LANCE cAMP) is a homogeneous, time-resolved fluorescence resonance energy transfer (TR-FRET) immunoassay designed to measure cAMP produced upon modulation of adenylyl cyclase activity by G protein-coupled receptors (GPCRs).
Cells expressing human opioid NOP (ValiScreen cell line, cat #ES-230-C Perkin Elmer (Waltham, MA) were dispensed in simulation buffer (5 mM Hepes, 0.1% BSA, 0.5 mM IBMX in Hanks Buffered Saline Solution) at 2.5 μL cells per well (400 cells/well) into a 1536 white TC-treated assay plate. Compound was then added and plates were incubated for 15 minutes at room temperature. To each well was added 2.5 μL of a solution containing forskolin (3 μM final) and nociceptin peptide ([…] final) diluted in stimulation buffer, and the plates were incubated for 30 minutes at room temperature. To each well was dispensed 5 μL of LANCE Ultra detection (1:300 dilution of anti-cAMP ULight with a 1:100 dilution of Eu-cAMP tracer diluted in cAMP Detection Buffer) reagent, and the plates were incubated for 1 hr at room temperature. The plate was then read on the ViewLux microplate reader (Perkin Elmer, Waltham, MA) using the LANCE 1536 protocol with 60 second exposure times and 50 μs delay. This protocol has an excitation wavelength of 340 nm (DUG11 filter) and emission wavelengths of 615 nm (Eu-Donor) and 665 nm (Alexa 647 cAMP antibody acceptor).
Data was analyzed, normalized, and visualized using ACAS (John McNeil & Co.). Efficacy was calculated using activity of the vehicle (DMSO) as 0% efficacy and the activity of the corresponding reference positive control (SCH 221510, Tocris Bioscience (Pittsburgh, PA), Catalog number 3240) as 100% efficacy. Activity was calculated as the ratio of donor and acceptor emissions. All curve fits and IC50 determinations were performed using a non-linear regression model. The IC50 value was measured as the concentration at which half-maximal response was calculated.
A general note: cAMP levels reflect the balance of adenylyl cyclase and phosphodiesterase activity.
For `Cc1c(F)c(F)ccc1[C@H]1CC[C@H](CCNC2(C(N)=O)CCOCC2)CC1` [Example 49, 4-((2-((trans)-4-(3,4-difluoro-2-methylphenyl)cyclohexyl)ethyl)amino)tetrahydro-2H-pyran-4-carboxamide], the IC50 is 100 to 1000 nM.

As to `CC(=O)N1CCC(NCCC2CCC(c3cccc(F)c3Cl)CC2)CC1` (stereo not shown) [Example 171, 1-[4-({2-[4-(2-Chloro-3-fluorophenyl)cyclohexyl]ethyl}amino)piperidin-1-yl]ethan-1-one], the IC50 was greater than 1000 nM.

On to `Cc1nccnc1[C@H]1CC[C@H](CCNC2CCOCC2)CC1` [Example 88, N-(2-((trans)-4-(3-methylpyrazin-2-yl)cyclohexyl)ethyl)tetrahydro-2H-pyran-4-amine], for which the IC50 was greater than 1000 nM.

`CC(=O)N1CCC(NCCC2CCC(c3cc(F)ccc3Cl)CC2)CC1` (stereo not shown) [Example 178, 1-[4-({2-[4-(2-Chloro-5-fluorophenyl)cyclohexyl]ethyl}amino)piperidin-1-yl]ethan-1-one]: the IC50 was greater than 1000 nM.

Consider `CC(=O)N1CCC(NCCC2CCC(c3ncccc3Cl)CC2)CC1` (stereo not shown) [Example 173, 1-[4-({2-[4-(3-Chloropyridin-2-yl)cyclohexyl]ethyl}amino)piperidin-1-yl]ethan-1-one], for which the IC50 is greater than 1000 nM.

With `CC(=O)N1CCC(NCCC2CCC(c3cnccc3C)CC2)CC1` (stereo not shown) [Example 175, 1-[4-({2-[4-(4-Methylpyridin-3-yl)cyclohexyl]ethyl}amino)piperidin-1-yl]ethan-1-one], the IC50 is greater than 1000 nM.

For `Cc1cnccc1C1CCC(CCNC2(C(N)=O)CCCC2)CC1` (stereo not shown) [Example 123, 1-({2-[4-(3-Methylpyridin-4-yl)cyclohexyl]ethyl}amino)cyclopentane-1-carboxamide], the IC50 is greater than 1000 nM.

Regarding `CNC(=O)C1(NCC[C@H]2CC[C@H](c3ncc(F)cc3C(F)(F)F)CC2)CCOCC1` [Example 51, 4-((2-((trans)-4-(5-fluoro-3-(trifluoromethyl)pyridin-2-yl)cyclohexyl)ethyl)amino)-N-methyltetrahydro-2H-pyran-4-carboxamide], the IC50 is greater than 1000 nM.

For the molecule `Cc1ccncc1C1CCC(CCNC2(C(N)=O)CCCC2)CC1` (stereo not shown) [Example 118, 1-({2-[4-(4-Methylpyridin-3-yl)cyclohexyl]ethyl}amino)cyclopentane-1-carboxamide], the IC50 is greater than 1000 nM.

With `CNC(=O)C1(NCC[C@H]2CC[C@@H](c3ncc(F)cc3C(F)(F)F)CC2)CCOCC1` [Example 50, 4-((2-((cis)-4-(5-fluoro-3-(trifluoromethyl)pyridin-2-yl)cyclohexyl)ethyl)amino)-N-methyltetrahydro-2H-pyran-4-carboxamide], the IC50 is greater than 1000 nM.

For `NC(=O)C1(NCCC2CCC(c3ncccc3Cl)CC2)CCCC1` (stereo not shown) [Example 116, 1-({2-[4-(3-Chloropyridin-2-yl)cyclohexyl]ethyl}amino)cyclopentane-1-carboxamide], the IC50 was greater than 1000 nM.

Take `Fc1cnc([C@H]2CC[C@H](CCNC3CCOCC3)CC2)nc1` [Example 12, N-(2-((trans)-4-(5-fluoropyrimidin-2-yl)cyclohexyl)ethyl)tetrahydro-2H-pyran-4-amine]: the IC50 is greater than 1000 nM.

With `NC(=O)C1(NCCC2CCC(c3cccc(F)c3Cl)CC2)CCCC1` (stereo not shown) [Example 114, 1-({2-[4-(2-Chloro-3-fluorophenyl)cyclohexyl]ethyl}amino)cyclopentane-1-carboxamide], the IC50 is greater than 1000 nM.

As to `CC(=O)N1CCC(NCCC2CCC(c3ncccc3C)CC2)CC1` (stereo not shown) [Example 174, 1-[4-({2-[4-(3-Methylpyridin-2-yl)cyclohexyl]ethyl}amino)piperidin-1-yl]ethan-1-one], the IC50 is greater than 1000 nM.

As to `O=C1CC(NCC[C@H]2CC[C@H](c3ccc(F)cc3Cl)CC2)CCN1` (mixture of isomers) [Example 163, Racemic-4-({2-[(trans)-4-(2-Chloro-4-fluorophenyl)cyclohexyl]ethyl}amino)piperidin-2-one], the IC50 is 1 to 10 nM.

For the molecule `CN1CCC(NCCC2CCC(c3ncccc3Cl)CC2)CC1` (stereo not shown) [Example 181, N-{2-[4-(3-Chloropyridin-2-yl)cyclohexyl]ethyl}-1-methylpiperidin-4-amine], the IC50 was greater than 1000 nM.

`Cc1cccnc1C1CCC(CCNC2CCN(C)CC2)CC1` (stereo not shown) [Example 182, 1-Methyl-N-{2-[4-(3-methylpyridin-2-yl)cyclohexyl]ethyl}piperidin-4-amine]: the IC50 was greater than 1000 nM.

In the case of `CN1CCC(NCCC2CCC(c3cccc(F)c3Cl)CC2)CC1` (stereo not shown) [Example 179, N-{2-[4-(2-Chloro-3-fluorophenyl)cyclohexyl]ethyl}-1-methylpiperidin-4-amine], the IC50 is greater than 1000 nM.

On to `CC1(NCCC2CCC(c3cccc(F)c3Cl)CC2)CCCC1` (stereo not shown) [Example 106, N-{2-[4-(2-Chloro-3-fluorophenyl)cyclohexyl]ethyl}-1-methylcyclopentan-1-amine], for which the IC50 was greater than 1000 nM.

As to `Cc1cnccc1C1CCC(CCNC2(C)CCOCC2)CC1` (stereo not shown) [Example 139, 4-Methyl-N-{2-[4-(3-methylpyridin-4-yl)cyclohexyl]ethyl}oxan-4-amine], the IC50 was greater than 1000 nM.

Take `Clc1cccc(Cl)c1C1CCC(CCNC2CCOCC2)CC1` (single isomer, unassigned) [Example 8, N-(2-((cis)-4-(2,6-dichlorophenyl)cyclohexyl)ethyl)tetrahydro-2H-pyran-4-amine]: the IC50 was 1 to 10 nM.

In the case of `Cc1cccnc1C1CCC(CCNC2(C(N)=O)CCCC2)CC1` (stereo not shown) [Example 117, 1-({2-[4-(3-Methylpyridin-2-yl)cyclohexyl]ethyl}amino)cyclopentane-1-carboxamide], the IC50 was greater than 1000 nM.

Regarding `Fc1ccc([C@H]2CC[C@@H](CCNC3CCOCC3F)CC2)c(Cl)c1` (single isomer, unassigned) [Example 57, N-(2-((cis)-4-(2-chloro-4-fluorophenyl)cyclohexyl)ethyl)-3-fluorotetrahydro-2H-pyran-4-amine], the IC50 is less than 1 nM.

For `Cc1ccncc1C1CCC(CCNC2(C)CCCC2)CC1` (stereo not shown) [Example 111, 1-Methyl-N-{2-[4-(4-methylpyridin-3-yl)cyclohexyl]ethyl}cyclopentan-1-amine], the IC50 was greater than 1000 nM.

Consider `CC(=O)N1CCC(NCCC2CCC(c3ncc(F)cc3Cl)CC2)CC1` (stereo not shown) [Example 172, 1-[4-({2-[4-(3-Chloro-5-fluoropyridin-2-yl)cyclohexyl]ethyl}amino)piperidin-1-yl]ethan-1-one], for which the IC50 is greater than 1000 nM.

Consider `COCC1(NCCC2CCC(c3ncccc3Cl)CC2)CCOCC1` (stereo not shown) [Example 146, N-{2-[4-(3-Chloropyridin-2-yl)cyclohexyl]ethyl}-4-(methoxymethyl)oxan-4-amine], for which the IC50 is greater than 1000 nM.

For the molecule `Cc1cnccc1C1CCC(CCNC2CCN(C)CC2)CC1` (stereo not shown) [Example 187, 1-Methyl-N-{2-[4-(3-methylpyridin-4-yl)cyclohexyl]ethyl}piperidin-4-amine], the IC50 was greater than 1000 nM.

As for `Cc1cnccc1C1CCC(CCNC2(C)CCCC2)CC1` (stereo not shown) [Example 121, 1-Methyl-N-{2-[4-(3-methylpyridin-4-yl)cyclohexyl]ethyl}cyclopentan-1-amine], the IC50 was greater than 1000 nM.
